Test results published in the kinase profiling compilation of Christmann-Franck et al. (2016).

What was measured:
Assay in all cases: KINOMEscan competition binding
Conditions in all cases: compound 1.0 µM
[1] = tested on: ABL1 (human), P00519 [M351T]
[2] = molecular target: BMPR1B (human) (UniProt O00238)
[3] = molecular target: BMX (human) (UniProt P51813)
[4] = molecular target: CAMK1G (human) (UniProt Q96NX5)
[5] = molecular target: CDC42BPA (human) (UniProt Q5VT25)
[6] = molecular target: CDK13 (human) (UniProt Q14004)
[7] = molecular target: CDK5 (human) (UniProt Q00535)
Chain of CDK5 (human) (Q00535 whole entry, looked up): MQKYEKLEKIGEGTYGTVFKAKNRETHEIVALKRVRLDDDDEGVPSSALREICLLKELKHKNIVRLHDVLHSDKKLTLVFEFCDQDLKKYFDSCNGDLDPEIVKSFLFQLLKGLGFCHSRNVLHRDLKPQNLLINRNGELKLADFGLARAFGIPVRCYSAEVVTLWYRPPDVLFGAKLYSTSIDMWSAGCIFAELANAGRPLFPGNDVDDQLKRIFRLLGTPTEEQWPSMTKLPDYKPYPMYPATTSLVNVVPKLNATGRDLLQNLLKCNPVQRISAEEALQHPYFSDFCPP

[8] = molecular target: CIT (human) (UniProt O14578)
[9] = molecular target: CSNK1D (human) (UniProt P48730)
[10] = molecular target: CSNK1E (human) (UniProt P49674)
[11] = molecular target: DCLK1 (human) (UniProt O15075)
[12] = tested on: EGFR (human), P00533 [P753S; 747-752 del]
[13] = molecular target: FGFR2 (human) (UniProt P21802)
[14] = molecular target: FLT4 (human) (UniProt P35916)
[15] = molecular target: IKBKE (human) (UniProt Q14164)
[16] = molecular target: INSRR (human) (UniProt P14616)
[17] = molecular target: JAK2 JH1 catalytic (human) (UniProt O60674)
[18] = molecular target: KDR (human) (UniProt P35968)
[19] = tested on: KIT (human), P10721 [D816H]
[20] = molecular target: MAP2K4 (human) (UniProt P45985)
[21] = molecular target: MAP3K2 (human) (UniProt Q9Y2U5)
[22] = molecular target: MAP4K1 (human) (UniProt Q92918)
Chain of MAP4K1 (human) (Q92918 whole entry, looked up): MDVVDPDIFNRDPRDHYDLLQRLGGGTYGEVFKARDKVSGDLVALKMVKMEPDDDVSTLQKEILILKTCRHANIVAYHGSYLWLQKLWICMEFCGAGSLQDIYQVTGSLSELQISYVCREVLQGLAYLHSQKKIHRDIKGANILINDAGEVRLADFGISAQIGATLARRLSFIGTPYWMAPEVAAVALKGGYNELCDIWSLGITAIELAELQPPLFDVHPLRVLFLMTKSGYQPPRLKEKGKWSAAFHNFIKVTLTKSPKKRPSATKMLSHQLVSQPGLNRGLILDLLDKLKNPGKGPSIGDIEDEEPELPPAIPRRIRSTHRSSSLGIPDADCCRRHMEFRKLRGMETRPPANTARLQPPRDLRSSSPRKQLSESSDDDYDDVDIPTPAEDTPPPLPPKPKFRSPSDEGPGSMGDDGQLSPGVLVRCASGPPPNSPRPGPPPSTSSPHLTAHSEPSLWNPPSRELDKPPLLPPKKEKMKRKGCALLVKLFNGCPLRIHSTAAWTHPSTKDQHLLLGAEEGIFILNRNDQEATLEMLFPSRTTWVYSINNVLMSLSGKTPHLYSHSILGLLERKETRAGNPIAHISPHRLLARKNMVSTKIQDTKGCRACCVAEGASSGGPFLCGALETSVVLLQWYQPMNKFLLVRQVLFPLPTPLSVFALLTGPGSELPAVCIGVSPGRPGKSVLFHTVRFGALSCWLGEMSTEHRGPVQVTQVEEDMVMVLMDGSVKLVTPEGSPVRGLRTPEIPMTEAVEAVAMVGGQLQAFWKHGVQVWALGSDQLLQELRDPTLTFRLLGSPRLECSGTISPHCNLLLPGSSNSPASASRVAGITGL

[23] = molecular target: MAPK7 (human) (UniProt Q13164)
[24] = molecular target: MARK1 (human) (UniProt Q9P0L2)
[25] = molecular target: MAST1 (human) (UniProt Q9Y2H9)
[26] = molecular target: PAK6 (human) (UniProt Q9NQU5)
[27] = molecular target: PIK3CA (human) (UniProt P42336)
Chain of PIK3CA (human) (P42336 whole entry, looked up): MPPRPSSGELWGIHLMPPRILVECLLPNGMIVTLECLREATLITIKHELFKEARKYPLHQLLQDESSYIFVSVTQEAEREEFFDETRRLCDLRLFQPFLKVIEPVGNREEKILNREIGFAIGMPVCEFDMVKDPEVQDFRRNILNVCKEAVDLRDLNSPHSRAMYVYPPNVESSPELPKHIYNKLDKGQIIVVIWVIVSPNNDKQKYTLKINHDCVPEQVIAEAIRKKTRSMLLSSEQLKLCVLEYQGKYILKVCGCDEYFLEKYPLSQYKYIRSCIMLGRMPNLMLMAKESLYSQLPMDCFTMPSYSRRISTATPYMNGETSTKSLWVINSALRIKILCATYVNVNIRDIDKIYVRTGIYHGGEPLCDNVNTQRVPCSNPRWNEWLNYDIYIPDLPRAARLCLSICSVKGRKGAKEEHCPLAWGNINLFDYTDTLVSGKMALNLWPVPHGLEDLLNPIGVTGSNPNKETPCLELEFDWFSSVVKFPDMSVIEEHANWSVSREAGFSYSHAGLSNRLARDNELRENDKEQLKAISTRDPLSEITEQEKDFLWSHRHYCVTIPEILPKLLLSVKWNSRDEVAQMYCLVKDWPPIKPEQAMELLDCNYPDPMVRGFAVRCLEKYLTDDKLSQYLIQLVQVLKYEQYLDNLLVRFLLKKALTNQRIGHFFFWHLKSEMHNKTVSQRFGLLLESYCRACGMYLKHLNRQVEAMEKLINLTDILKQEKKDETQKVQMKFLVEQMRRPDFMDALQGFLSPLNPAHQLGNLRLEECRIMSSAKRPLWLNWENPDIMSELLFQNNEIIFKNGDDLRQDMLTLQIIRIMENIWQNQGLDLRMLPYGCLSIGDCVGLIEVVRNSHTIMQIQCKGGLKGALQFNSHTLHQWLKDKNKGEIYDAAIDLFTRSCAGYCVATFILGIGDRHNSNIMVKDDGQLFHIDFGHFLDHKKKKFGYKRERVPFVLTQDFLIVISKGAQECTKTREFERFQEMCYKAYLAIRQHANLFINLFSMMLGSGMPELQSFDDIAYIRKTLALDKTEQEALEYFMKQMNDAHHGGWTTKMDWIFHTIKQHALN

[28] = tested on: PIK3CA (human), P42336 [Q546K]
Chain of PIK3CA (human), P42336 [Q546K] (P42336 whole entry Q546K, looked up): as the sequence (P42336 whole entry, looked up) above, with Q546K counted along it

[29] = molecular target: PIK3CD (human) (UniProt O00329)
[30] = molecular target: PRKCQ (human) (UniProt Q04759)
[31] = molecular target: PTK2B (human) (UniProt Q14289)
[32] = tested on: RET (human), P07949 [V804M]
[33] = molecular target: RPS6KA5 KD2 (human) (UniProt O75582)
[34] = molecular target: SRMS (human) (UniProt Q9H3Y6)
[35] = molecular target: STK24 (human) (UniProt Q9Y6E0)
[36] = molecular target: TEK (human) (UniProt Q02763)
Chain of TEK (human) (Q02763 whole entry, looked up): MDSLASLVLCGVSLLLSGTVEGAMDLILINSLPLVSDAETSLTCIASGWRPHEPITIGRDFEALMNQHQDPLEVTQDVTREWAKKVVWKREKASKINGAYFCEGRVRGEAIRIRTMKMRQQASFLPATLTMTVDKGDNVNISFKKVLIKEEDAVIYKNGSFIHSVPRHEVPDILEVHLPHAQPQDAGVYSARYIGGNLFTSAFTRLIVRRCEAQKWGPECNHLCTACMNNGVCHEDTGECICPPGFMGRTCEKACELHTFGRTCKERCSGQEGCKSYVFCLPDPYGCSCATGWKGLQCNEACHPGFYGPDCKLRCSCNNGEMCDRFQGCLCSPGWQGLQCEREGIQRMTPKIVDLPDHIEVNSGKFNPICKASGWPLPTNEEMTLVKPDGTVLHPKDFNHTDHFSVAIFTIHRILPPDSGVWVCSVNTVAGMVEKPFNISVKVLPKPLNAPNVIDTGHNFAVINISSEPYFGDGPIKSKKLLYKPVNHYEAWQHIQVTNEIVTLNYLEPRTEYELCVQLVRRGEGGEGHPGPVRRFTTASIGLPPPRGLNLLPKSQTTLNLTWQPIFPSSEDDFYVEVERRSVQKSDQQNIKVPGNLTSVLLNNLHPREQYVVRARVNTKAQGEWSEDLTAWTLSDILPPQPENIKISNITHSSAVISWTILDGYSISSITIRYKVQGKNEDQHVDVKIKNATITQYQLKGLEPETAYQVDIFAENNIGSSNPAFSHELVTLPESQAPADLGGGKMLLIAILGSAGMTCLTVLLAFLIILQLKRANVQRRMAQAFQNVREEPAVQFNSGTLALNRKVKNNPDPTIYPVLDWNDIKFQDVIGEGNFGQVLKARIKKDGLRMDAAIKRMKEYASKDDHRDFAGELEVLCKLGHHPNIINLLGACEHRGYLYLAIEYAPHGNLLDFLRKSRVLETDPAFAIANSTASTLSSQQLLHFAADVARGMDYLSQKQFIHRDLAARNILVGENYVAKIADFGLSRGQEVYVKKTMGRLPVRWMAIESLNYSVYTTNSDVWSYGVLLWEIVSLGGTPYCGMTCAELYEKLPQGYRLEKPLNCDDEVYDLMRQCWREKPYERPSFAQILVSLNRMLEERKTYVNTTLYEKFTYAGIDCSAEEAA

[37] = molecular target: TIE1 (human) (UniProt P35590)
[38] = molecular target: TLK1 (human) (UniProt Q9UKI8)
[39] = molecular target: ULK3 (human) (UniProt Q6PHR2)

Chain of CDC42BPA (human) (Q5VT25 whole entry, looked up): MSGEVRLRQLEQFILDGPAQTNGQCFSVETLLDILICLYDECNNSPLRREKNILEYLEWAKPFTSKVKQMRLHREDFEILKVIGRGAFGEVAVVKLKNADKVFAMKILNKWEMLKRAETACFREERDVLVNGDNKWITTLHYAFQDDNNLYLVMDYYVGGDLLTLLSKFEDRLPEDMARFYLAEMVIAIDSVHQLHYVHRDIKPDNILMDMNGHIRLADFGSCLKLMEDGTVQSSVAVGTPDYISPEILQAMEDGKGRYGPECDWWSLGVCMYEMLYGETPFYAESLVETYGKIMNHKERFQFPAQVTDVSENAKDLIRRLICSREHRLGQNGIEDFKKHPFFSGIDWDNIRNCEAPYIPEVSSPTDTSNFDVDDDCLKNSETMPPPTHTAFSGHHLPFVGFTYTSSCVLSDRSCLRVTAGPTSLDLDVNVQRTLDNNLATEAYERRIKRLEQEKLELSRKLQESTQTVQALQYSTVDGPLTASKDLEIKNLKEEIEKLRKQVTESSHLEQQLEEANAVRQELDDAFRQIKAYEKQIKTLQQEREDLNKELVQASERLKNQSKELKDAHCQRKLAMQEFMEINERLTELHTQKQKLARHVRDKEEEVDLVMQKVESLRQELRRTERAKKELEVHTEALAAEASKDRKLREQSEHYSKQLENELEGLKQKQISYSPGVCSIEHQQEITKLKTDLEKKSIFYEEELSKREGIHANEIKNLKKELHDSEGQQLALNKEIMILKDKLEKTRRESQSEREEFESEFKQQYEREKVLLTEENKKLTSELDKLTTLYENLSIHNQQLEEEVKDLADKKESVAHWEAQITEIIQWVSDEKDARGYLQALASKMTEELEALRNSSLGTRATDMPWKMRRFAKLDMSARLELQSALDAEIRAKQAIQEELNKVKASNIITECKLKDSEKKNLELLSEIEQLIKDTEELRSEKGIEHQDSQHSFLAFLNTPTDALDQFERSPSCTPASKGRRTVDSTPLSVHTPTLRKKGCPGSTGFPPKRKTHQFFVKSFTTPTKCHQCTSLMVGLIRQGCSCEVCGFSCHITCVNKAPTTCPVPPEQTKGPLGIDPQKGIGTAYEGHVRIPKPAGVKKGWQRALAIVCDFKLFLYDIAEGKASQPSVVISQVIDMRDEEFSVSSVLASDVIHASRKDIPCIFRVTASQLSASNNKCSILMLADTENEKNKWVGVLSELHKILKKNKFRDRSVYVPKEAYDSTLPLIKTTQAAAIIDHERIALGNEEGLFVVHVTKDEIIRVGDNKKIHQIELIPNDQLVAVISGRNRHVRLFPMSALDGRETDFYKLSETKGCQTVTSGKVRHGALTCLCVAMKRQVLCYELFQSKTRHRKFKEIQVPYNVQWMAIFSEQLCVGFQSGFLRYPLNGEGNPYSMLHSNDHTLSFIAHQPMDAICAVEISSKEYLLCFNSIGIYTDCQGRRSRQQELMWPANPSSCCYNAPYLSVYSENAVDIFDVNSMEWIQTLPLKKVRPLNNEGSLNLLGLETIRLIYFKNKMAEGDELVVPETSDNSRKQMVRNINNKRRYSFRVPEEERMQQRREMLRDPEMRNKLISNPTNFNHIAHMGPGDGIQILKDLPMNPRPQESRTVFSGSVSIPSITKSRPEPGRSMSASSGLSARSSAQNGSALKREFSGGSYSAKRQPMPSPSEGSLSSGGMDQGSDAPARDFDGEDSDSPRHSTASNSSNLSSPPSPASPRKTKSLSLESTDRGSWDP

CNc1nc(Nc2ccc(C(=O)N3CCOCC3)cc2OC)ncc1Cl
kinase still bound, per cent of control [1]: 97%
kinase still bound, per cent of control [2]: 100%
kinase still bound, per cent of control [3]: 100%
kinase still bound, per cent of control [4]: 96%
kinase still bound, per cent of control [5]: 97%
residual activity [6]: 89%
residual activity [7]: 100%
kinase still bound, per cent of control [8]: 100%
residual activity [9]: 100%
kinase still bound, per cent of control [10]: 100%
kinase still bound, per cent of control [11]: 100%
kinase still bound, per cent of control [12]: 89%
kinase still bound, per cent of control [13]: 100%
kinase still bound, per cent of control [14]: 93%
kinase still bound, per cent of control [15]: 86%
kinase still bound, per cent of control [16]: 90%
kinase still bound, per cent of control [17]: 100%
kinase still bound, per cent of control [18]: 87%
kinase still bound, per cent of control [19]: 100%
kinase still bound, per cent of control [20]: 78%
kinase still bound, per cent of control [21]: 100%
kinase still bound, per cent of control [22]: 100%
kinase still bound, per cent of control [23]: 98%
kinase still bound, per cent of control [24]: 45%
kinase still bound, per cent of control [25]: 93%
kinase still bound, per cent of control [26]: 100%
kinase still bound, per cent of control [27]: 100%
kinase still bound, per cent of control [28]: 100%
kinase still bound, per cent of control [29]: 69%
kinase still bound, per cent of control [30]: 100%
kinase still bound, per cent of control [31]: 82%
kinase still bound, per cent of control [32]: 92%
kinase still bound, per cent of control [33]: 54%
kinase still bound, per cent of control [34]: 100%
kinase still bound, per cent of control [35]: 79%
kinase still bound, per cent of control [36]: 100%
kinase still bound, per cent of control [37]: 100%
kinase still bound, per cent of control [38]: 93%
kinase still bound, per cent of control [39]: 83%
